Read-outs that look alike come from different tables or passages of the source.
System: Adjuvant-Induced Arthritis
Assay: Adjuvant-induced arthritis in the rat (Mycobacterium butyricum, subplantar; inhibition of hindpaw edema, primary and secondary lesions)
Format: in vivo, rat (adult male Wistar-Lewis)
Conditions: for % Inhibition of Lesions, Secondary (mean ± SE): contralateral non-injected paw, day 16; for % Inhibition of Lesions, Primary (mean ± SE): injected paw, day 4; for ED50: Rattus norvegicus
Protocol: Adjuvant arthritis was induced in adult male Wistar-Lewis rats weighing 250-270 grams each (Charles River Breeding Laboratories, Kingston, N.Y.) by a single subplantar injection of 1 mg of Mycobacterium butyricum (Difco Laboratories, Lot #0640-33) suspended in 0.1 ml mineral oil as described by Walz et al. (Proc. Soc. Exptl. Biol. Med., 136: 907-910, 1971). Seven rats were used in each group. Orally administered drugs were dissolved in water and dilute sodium hydroxide was added as necessary to ensure solution; control groups received only water. After neutralization of the solutions to pH 7.0, a volume of 10 ml/kg body weight was given by intubation with a blunt end, 18-gauge needle. Doses of each drug were given daily starting 1 day before the injection of adjuvant and continuing until 16 days after the induction of the arthritic lesion.
The initial hindpaw volumes (Vi) were measured on the day of adjuvant injection and the resultant swelling was determined on the injected paw (Vf - Vi) on the 4th day following the adjuvant injection. This was considered to be the primary response or lesion. The swelling (Vf - Vi) measured 16 days after adjuvant injection on the contralateral, non-injected hindpaw constituted the secondary response or lesion. The rats were weighed at the start of the experiments as well as 4 and 16 days after the induction of the disease. Percent inhibition of edema was calculated according to the following formula: [formula]

Compound | effect on the course of adjuvant arthritis in rats (in words) (compound alone) | % Inhibition of Lesions, Secondary (mean ± SE) (oral 1.0 mg/kg daily) | % Inhibition of Lesions, Primary (mean ± SE) (oral 1.0 mg/kg daily) | % Inhibition of Lesions, Secondary (mean ± SE) (oral 3.3 mg/kg daily) | % Inhibition of Lesions, Primary (mean ± SE) (oral 3.3 mg/kg daily) | % Inhibition of Lesions, Secondary (mean ± SE) (oral 10.0 mg/kg daily) | % Inhibition of Lesions, Primary (mean ± SE) (oral 10.0 mg/kg daily) | ED50 (in words) (oral, linear regression of Table I data, secondary lesions) | activity against primary lesions (in words) (oral, primary lesions) | activity against secondary lesions (in words) (oral, secondary lesions) | ED50 (oral, linear regression of Table I data, primary lesions, read-out: ED50 against primary lesions) [mg/kg] | ED50 (oral, linear regression of Table I data, secondary lesions, read-out: ED50 against secondary lesions) [mg/kg] | % Inhibition of Lesions, Secondary (mean ± SE) (oral 0.10 mg/kg daily) | % Inhibition of Lesions, Primary (mean ± SE) (oral 0.10 mg/kg daily) | % Inhibition of Lesions, Secondary (mean ± SE) (oral 0.33 mg/kg daily) | % Inhibition of Lesions, Primary (mean ± SE) (oral 0.33 mg/kg daily)
Cc1nc(-c2csc(NC(=N)N)n2)c[nH]1.Cl.Cl [Compound A, 2-Guanidino-4-(2-methyl-4-imidazolyl)thiazole Dihydrochloride] | beneficial effect | 3 (3) % | 0 (6) % | 28 (4) % | 0 (3) % | 27 (3) % | 2 (2) % | no reliable ED50 could be extrapolated | no significant activity | significant activity |  |  |  |  |  | 
CN1C(C(=O)Nc2ccccn2)=C(O)c2ccccc2S1(=O)=O [Piroxicam, reference compound] |  | 64 (3) % | 45 (7) % |  |  |  |  |  |  |  | 2.6 | 0.45 | 26 (2) % | 29 (4) % | 43 (4) % | 33 (8) %
